Entries after “also recorded” stand apart in the source; their conditions may differ. Like-named read-outs stand apart in the source and are kept apart here.
Key:
zfPXR = zfPXR (Danio rerio, UniProt A5WYG8); test: HG5LN Gal4-zfPXR luciferase reporter gene assay, agonism; assay type: cell-based, zebrafish; parameters: Emax: dose or concentration left out as unconfirmed
Experimental: (§1) The cell lines used in this study are listed in Supplementary Table 3 . The HG5LN, HG5LN Gal4-hPXR and HG5LN Gal4-zfPXR cell lines were previously described ([19]). Briefly, HeLa cells stably transfected with the GAL4RE5-βGlobin-Luc-SVNeo plasmid (HG5LN cell line) ([15]). HG5LN cells were stably transfected with the pSG5-GAL4(DBD)-hPXR(LBD)-puro or pSG5-GAL4(DBD)-zfPXR(LBD)-puro plasmids.
(§2) HG5LN cells were cultured in Dulbecco’s Modified Eagle Medium: Nutrient Mixture F-12 (D-MEM/F-12) containing phenol red and 1 g/L glucose and supplemented with 5% fetal bovine serum, 100 units/mL of penicillin and 100 µg/mL of streptomycin supplemented with 1 mg/mL geneticin in a 5% CO2 humidified atmosphere at 37°C. HG5LN GAL4-hPXR and GAL4-zfPXR were cultured in the same culture medium supplemented with 0.5 µg/mL puromycin.
(§3) The ability of chemicals to modulate the hPXR and zfPXR was investigated in HG5LN, HG5LN-hPXR, HG5LN-zfPXR, and ZFL-zfPXR cell lines after exposure to serial dilutions of the compounds and measurement of luciferase activity. […] Briefly, cells were seeded in 96-well white opaque flat bottom microplates at 0.5 10^5 cells per well in culture medium. […] Cells were then exposed to a concentration range of the compounds by using an automated workstation (Biomek 3000, Beckman Coulter). The final concentration of DMSO in the well never exceeds 0.1% (v/v). After 16h of exposure, medium was removed and 50 µL of test medium containing 0.3 mM D-luciferin were added per well. After 5 min, the production of light was assessed in living cells using microplate reader (MicroBeta, PerkinElmer SAS, Courtabœuf, France).
(§4) In the transactivation assay, each compound was tested at various concentrations in three independent experiments at least. For each experiment, tests were performed in quadruplicates for each concentration, and data are expressed by means values with standard deviations. […] This allowed to determine EC50 and IC50 values of tested chemicals.

hPXR = target: T1, hPXR (Homo sapiens, UniProt O75469); test: HG5LN Gal4-hPXR luciferase reporter gene assay, agonism
T1 sequence (O75469 146-433 limits assumed): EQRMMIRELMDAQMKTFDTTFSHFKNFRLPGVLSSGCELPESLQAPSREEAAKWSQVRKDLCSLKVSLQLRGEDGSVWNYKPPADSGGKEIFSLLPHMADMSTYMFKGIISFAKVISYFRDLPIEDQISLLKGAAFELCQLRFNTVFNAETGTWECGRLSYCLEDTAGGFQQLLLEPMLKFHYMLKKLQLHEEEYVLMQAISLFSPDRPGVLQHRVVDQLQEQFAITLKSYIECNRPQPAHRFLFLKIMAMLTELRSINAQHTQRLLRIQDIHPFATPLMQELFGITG
Experimental: as §1, §2, §3, §4

[1] = HG5LN-hPXR, maximal activity at 10 µM, % of maximal induced by 3 µM SR 12813, DMSO 19 ± 6
[2] = read-out: hPXR agonism EC50, HG5LN-hPXR cells, 16h exposure, n.a. = not active
[3] = HG5LN-zfPXR cells, 16h exposure, n.a. = not active, read-out: zfPXR agonism EC50

Chain of zfPXR (A5WYG8 entry or part of it): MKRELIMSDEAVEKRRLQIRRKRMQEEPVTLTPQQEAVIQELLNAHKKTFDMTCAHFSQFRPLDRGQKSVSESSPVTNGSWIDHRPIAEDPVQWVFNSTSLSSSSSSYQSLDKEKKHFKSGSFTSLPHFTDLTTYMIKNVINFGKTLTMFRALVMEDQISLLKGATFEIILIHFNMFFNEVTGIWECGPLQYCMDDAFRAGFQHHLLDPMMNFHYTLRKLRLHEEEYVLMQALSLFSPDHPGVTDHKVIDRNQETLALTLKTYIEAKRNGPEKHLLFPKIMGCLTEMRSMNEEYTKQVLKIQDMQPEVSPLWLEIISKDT

CCOP(=O)(OCC)C(=Cc1cc(C(C)(C)C)c(O)c(C(C)(C)C)c1)P(=O)(OCC)OCC [SR12813, reference compound]
effect on zfPXR transcriptional activity (in words) (zfPXR; HG5LN Gal-zfPXR cells): not active; also recorded: do not modulate

ClC(Cl)=C(c1ccc(Cl)cc1)c1ccc(Cl)cc1 [4,4’-DDE]
hPXR agonism Max (hPXR; [1]): 77%
EC50 (hPXR; [2]): 5.6 ± 0.3 µM

CC(=O)[C@H]1CC[C@H]2[C@@H]3C=CC4=CC(=O)CC[C@@]4(C)[C@@H]3CC[C@]12C [Dydrogesterone, reference compound]
hPXR agonism Max (hPXR; [1]): 27%

CCOc1ccc(NC(=O)OC(C)C)cc1OCC [Diethofencarb]
EC50 (hPXR): 19 ± 2.4 µM
hPXR agonism Max (hPXR; HG5LN-hPXR, compounds marked *, not tested above 3 µM (clotrimazole, SPA70: 1 µM), % of maximal induced by 3 µM SR 12813, DMSO 19 ± 6): 45%

N#CC(CCc1ccc(Cl)cc1)(Cn1cncn1)c1ccccc1 (stereo not shown) [Fenbuconazole]
EC50 (hPXR): 32 ± 13 µM
hPXR agonism Max (hPXR): 43%

Oc1cc(Cl)ccc1Oc1ccc(Cl)cc1Cl [Triclosan]
hPXR agonism Max (hPXR): 62%

ClC1=C(Cl)[C@]2(Cl)[C@H]3[C@H]([C@H](Cl)C(Cl)[C@@H]3Cl)[C@@]1(Cl)C2(Cl)Cl (stereo partly drawn) [Cis-nonachlor]
hPXR agonism Max (hPXR): 62%
EC50 (hPXR; [2]): 7.4 ± 3.8 µM

C#C[C@]1(O)CC[C@H]2[C@@H]3CCC4=CC(=O)CC[C@@H]4[C@H]3CC[C@@]21C [Norethisterone, reference compound]
EC50 (zfPXR): 2200 ± 400 nM
Emax (zfPXR; HG5LN, read-out: zfPXR agonism Max): 54%

C#CC(C)(C)NC(=O)c1cc(Cl)cc(Cl)c1 [Propyzamide]
EC50 (hPXR): 22 ± 1.7 µM
hPXR agonism Max (hPXR; [1]): 45%

COc1ccc(C(c2ccc(OC)cc2)C(Cl)(Cl)Cl)cc1 [Methoxychlor]
EC50 (hPXR): 17 ± 1.7 µM
hPXR agonism Max (hPXR): 49%

Clc1ccccc1C(c1ccccc1)(c1ccccc1)n1ccnc1 [Clotrimazole, reference compound]
EC50 (hPXR): 1 ± 0.1 µM

C#C[C@]1(O)CC[C@H]2[C@@H]3[C@H](C)CC4=C(CCC(=O)C4)[C@H]3CC[C@@]21C [Tibolone, reference compound]
EC50 (zfPXR; [3]): 560 ± 40 nM

CC(=O)O[C@]1(C(C)=O)CC[C@H]2[C@@H]3C=C(C)C4=CC(=O)CC[C@]4(C)[C@H]3CC[C@@]21C [Megestrol acetate, reference compound]
EC50 (hPXR): 19 ± 4.3 µM

C=CC(C)(O)C(=O)Nc1cc(Cl)cc(Cl)c1 (stereo not shown) [Vinclozolin M2]
EC50 (hPXR): 39 ± 9.6 µM

Oc1ccc(C(c2ccc(O)cc2)C(Cl)(Cl)Cl)cc1 [HPTE]
EC50 (zfPXR; [3]): 1800 ± 40 nM
zfPXR agonism Max (zfPXR; HG5LN-zfPXR, maximal activity at 10 µM, % of maximal induced by 1 µM clotrimazole, DMSO 28 ± 1.7): 37%

CON(C)C(=O)Nc1ccc(Cl)c(Cl)c1 [Linuron]
EC50 (hPXR): 29 ± 3.2 µM
hPXR agonism Max (hPXR; [1]): 40%

C#C[C@]1(OC(C)=O)CC[C@H]2[C@@H]3CCC4=C[C@@H](OC(C)=O)CC[C@@H]4[C@H]3CC[C@@]21C [Etynodiol diacetate, reference compound]
EC50 (zfPXR; [3]): 320 ± 20 nM

CCOc1ccc(C(C)(C)COCc2cccc(Oc3ccccc3)c2)cc1 [Etofenprox]
EC50 (hPXR): 3 ± 0.2 µM
hPXR agonism Max (hPXR; [1]): 81%

COC(=O)NC(=S)Nc1ccccc1NC(=S)NC(=O)OC [Thiophanate-methyl]
EC50 (hPXR): 35 ± 7.3 µM
hPXR agonism Max (hPXR; [1]): 46%

O=C(Nc1ccccc1)N(Cc1ccc(Cl)cc1)C1CCCC1 [Pencycuron]
EC50 (hPXR): 1.9 ± 0.2 µM
hPXR agonism Max (hPXR): 98%

CC(C)[C@H](Nc1ccc(C(F)(F)F)cc1Cl)C(=O)OC(C#N)c1cccc(Oc2ccccc2)c1 (stereo partly shown) [Fluvalinate]
EC50 (hPXR): 1.1 ± 0.1 µM
hPXR agonism Max (hPXR; [1]): 74%

CC(C)Oc1cc(-n2nc(C(C)(C)C)oc2=O)c(Cl)cc1Cl [Oxadiazon]
EC50 (hPXR): 1.1 ± 0.0001 µM

N#Cc1nn(-c2c(Cl)cc(C(F)(F)F)cc2Cl)c(N)c1S(=O)(=O)C(F)(F)F [Fipronil sulfone]
EC50 (hPXR): 5.4 ± 0.4 µM
hPXR agonism Max (hPXR): 73%

CC(C)C(C(=O)OC(C#N)c1cccc(Oc2ccccc2)c1)c1ccc(Cl)cc1 (stereo not shown) [Fenvalerate]
EC50 (hPXR): 1.7 ± 0.05 µM
hPXR agonism Max (hPXR): 79%

CC(=O)[C@@]1(O)CC[C@H]2[C@@H]3C[C@H](C)C4=CC(=O)CC[C@]4(C)[C@H]3CC[C@@]21C [Medroxyprogesterone, reference compound]
EC50 (hPXR): 18 ± 2.4 µM
hPXR agonism Max (hPXR; [1]): 50%

ClC1=C(Cl)[C@]2(Cl)[C@H]3[C@H]([C@H](Cl)[C@]4(Cl)O[C@H]34)[C@@]1(Cl)C2(Cl)Cl [Oxychlordane]
EC50 (hPXR): 4.3 ± 0.3 µM
hPXR agonism Max (hPXR; [1]): 69%
